Consider 23 compounds from ChEMBL document CHEMBL4665677, “Recent Advances of SHP2 Inhibitors in Cancer Therapy: Current Development and Clinical Application” (J Med Chem, 2020).

Test [1] deals with T1, Tyrosine-protein phosphatase non-receptor type 1 (Homo sapiens, UniProt P18031).
T1 sequence (P18031 whole entry): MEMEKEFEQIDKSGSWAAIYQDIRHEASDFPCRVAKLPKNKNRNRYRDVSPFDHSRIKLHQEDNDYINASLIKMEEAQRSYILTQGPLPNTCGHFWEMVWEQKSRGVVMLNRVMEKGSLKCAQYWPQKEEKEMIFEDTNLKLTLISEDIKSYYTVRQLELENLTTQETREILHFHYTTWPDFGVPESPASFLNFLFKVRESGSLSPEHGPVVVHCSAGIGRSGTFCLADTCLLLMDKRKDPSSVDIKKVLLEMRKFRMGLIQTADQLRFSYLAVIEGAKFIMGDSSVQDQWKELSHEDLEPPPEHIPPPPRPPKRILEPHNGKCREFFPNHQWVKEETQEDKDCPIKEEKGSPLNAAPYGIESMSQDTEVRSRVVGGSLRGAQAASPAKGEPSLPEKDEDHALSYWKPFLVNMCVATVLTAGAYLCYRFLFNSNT
Description: Inhibition of N-terminal His6-tagged TEV cleavage site-fused human PTP1B (2 to 297 residues) expressed in Escherichia coli BL21(DE3)RILcodon+ or BL21(DE3)RPcodon+ using 4-nitrophenylphosphate as substrate.

In test [2] the target is T2, Tyrosine-protein phosphatase non-receptor type 6 (Homo sapiens, UniProt P29350). Kind of test: Inhibition of N-terminal His6-tagged TEV cleavage site-fused human SHP1 (222 to 535 residues) expressed in Escherichia coli BL21(DE3)RILcodon+ or BL21(DE3)RPcodon+ using 4-nitrophenylphosphate as substrate.
T2 sequence (P29350 whole entry, the tested form may be a part): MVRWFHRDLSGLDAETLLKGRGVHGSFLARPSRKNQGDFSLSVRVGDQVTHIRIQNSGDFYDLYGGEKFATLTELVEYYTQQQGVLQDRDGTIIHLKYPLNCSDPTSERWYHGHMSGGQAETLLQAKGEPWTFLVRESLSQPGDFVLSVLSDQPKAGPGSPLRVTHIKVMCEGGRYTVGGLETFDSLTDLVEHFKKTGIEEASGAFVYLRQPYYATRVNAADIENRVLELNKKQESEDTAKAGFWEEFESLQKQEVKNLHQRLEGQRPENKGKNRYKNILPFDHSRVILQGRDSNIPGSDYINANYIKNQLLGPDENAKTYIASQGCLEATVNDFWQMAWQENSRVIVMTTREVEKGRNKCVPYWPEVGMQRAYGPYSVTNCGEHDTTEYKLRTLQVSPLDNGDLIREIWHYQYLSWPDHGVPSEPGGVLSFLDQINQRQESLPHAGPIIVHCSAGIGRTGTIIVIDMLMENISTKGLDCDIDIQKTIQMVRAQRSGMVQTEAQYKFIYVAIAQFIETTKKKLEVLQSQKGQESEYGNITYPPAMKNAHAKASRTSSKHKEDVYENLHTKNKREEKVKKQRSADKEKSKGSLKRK
Test [3] relates to MeWo. Kind of test: Antitumor activity against human MeWo cells xenografted in NSG (NOD/scid/IL2Rgnull) mouse assessed as reduction in tumor volume at 15 mg/kg, ip administered once daily for 21 days. It counts as functional. Also on record: scale not given: the % may be the effect or the level left. The settings on record: time 21 day. (A xenograft is tissue or cells of one species grown in another, often human tumour cells in immunodeficient mice.)

Test [4] deals with T3, Tyrosine-protein phosphatase non-receptor type 11 (Homo sapiens, UniProt Q06124).
T3 sequence (Q06124 whole entry): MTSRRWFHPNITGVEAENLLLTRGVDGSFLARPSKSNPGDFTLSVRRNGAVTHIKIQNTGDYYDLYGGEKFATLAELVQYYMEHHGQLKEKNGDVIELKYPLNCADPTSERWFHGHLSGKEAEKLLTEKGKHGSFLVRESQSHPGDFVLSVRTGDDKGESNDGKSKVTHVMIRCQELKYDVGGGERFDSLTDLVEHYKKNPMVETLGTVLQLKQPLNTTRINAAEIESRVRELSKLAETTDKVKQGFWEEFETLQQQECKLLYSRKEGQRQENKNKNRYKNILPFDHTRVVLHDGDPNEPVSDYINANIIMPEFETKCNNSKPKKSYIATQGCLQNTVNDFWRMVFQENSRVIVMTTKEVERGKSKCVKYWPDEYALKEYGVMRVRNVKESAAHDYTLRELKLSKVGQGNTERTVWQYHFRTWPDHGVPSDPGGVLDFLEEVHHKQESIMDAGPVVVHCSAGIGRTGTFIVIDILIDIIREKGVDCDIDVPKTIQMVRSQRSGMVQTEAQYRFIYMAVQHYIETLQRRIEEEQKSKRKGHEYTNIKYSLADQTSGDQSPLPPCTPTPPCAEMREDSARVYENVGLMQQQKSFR
Kind of test: Inhibition of SHP2 PTP domain (unknown origin).

Test [5] deals with Tyrosine-protein phosphatase non-receptor type 11 (Homo sapiens, UniProt Q06124, Q257L/T253M). Kind of test: Inhibition of SHP2 T253M/Q257L double mutant (unknown origin).
Sequence of Tyrosine-protein phosphatase non-receptor type 11 (Homo sapiens, UniProt Q06124, Q257L/T253M) (Q06124 2-593 T253M/Q257L limits assumed): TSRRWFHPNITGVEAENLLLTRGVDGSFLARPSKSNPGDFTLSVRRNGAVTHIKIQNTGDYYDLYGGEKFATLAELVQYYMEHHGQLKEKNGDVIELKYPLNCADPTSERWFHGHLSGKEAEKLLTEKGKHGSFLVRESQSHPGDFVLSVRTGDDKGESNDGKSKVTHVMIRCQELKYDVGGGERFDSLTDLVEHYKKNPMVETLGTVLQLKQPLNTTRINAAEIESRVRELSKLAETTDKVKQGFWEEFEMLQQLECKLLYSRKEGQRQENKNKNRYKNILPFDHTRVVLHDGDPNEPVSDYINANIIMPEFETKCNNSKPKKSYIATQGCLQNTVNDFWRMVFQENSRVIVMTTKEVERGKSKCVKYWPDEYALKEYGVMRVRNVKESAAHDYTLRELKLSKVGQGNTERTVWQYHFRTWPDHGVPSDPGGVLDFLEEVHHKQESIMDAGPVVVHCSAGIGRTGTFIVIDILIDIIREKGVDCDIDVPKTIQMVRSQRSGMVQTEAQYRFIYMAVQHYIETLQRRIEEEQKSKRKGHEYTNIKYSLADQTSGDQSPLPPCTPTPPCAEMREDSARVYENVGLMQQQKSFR
The target of test [6] is T2, Tyrosine-protein phosphatase non-receptor type 6. Kind of test: Inhibition of His6-fused human SHP1 catalytic domain expressed in Escherichia coli cells using DiFMUP as substrate preincubated for 30 followed by substrate addition and by fluorescence method.
For test [7] the target is unchanged. Description: Inhibition of His6-fused human full length SHP1 expressed in Escherichia coli cells using DiFMUP as substrate preincubated for 30 mins followed by substrate addition and by fluorescence method.
The target in test [8] is T1, Tyrosine-protein phosphatase non-receptor type 1. Description: Inhibition of His6-fused human PTP1B expressed in Escherichia coli cells using DiFMUP as substrate preincubated for 30 followed by substrate addition and by fluorescence method.
Test [9] has the same target. Kind of test: Inhibition of PTP1B (unknown origin) using 6,8-difluoro-4-methylum-belliferylphosphate as substrate preincubated for 1 hr followed by substrate by fluorescence method.
The target in test [10] is T3, Tyrosine-protein phosphatase non-receptor type 11. Description: Inhibition of N-terminal His6-tagged TEV cleavage site-fused human SHP2 catalytic domain (248 to 527 residues) expressed in Escherichia coli Rosetta(DE3) using 6,8-difluoro-4-methylum-belliferylphosphate as substrate preincubated for 1 hr followed by substrate addition by fluorescence method.
Test [11] deals with T2, Tyrosine-protein phosphatase non-receptor type 6. Description: Inhibition of SHP1 (unknown origin) using 6,8-difluoro-4-methylum-belliferylphosphate as substrate preincubated for 1 hr followed by substrate by fluorescence method.
Test [12] concerns the target T3, Tyrosine-protein phosphatase non-receptor type 11. Kind of test: Allosteric inhibition of full length N-terminal His6-tagged human SHP2 (2 to 593 residues) expressed in Escherichia coli using DiFMUP as substrate in presence of activating peptide preincubated for 60 mins followed by substrate addition amd measured after 30 mins by fluorescence method.
The target is the same in test [13]. Description: Allosteric inhibition of [IRSl_pY1172(dPEG8)pY1222] peptide-activated SHP2 (unknown origin) using DiFMUP as substrate preincubated for 30 to 60 mins followed by substrate addition and measured after 30 mins by fluorescence method.
Test [14] in a line: Antitumor activity against human LXFA526L cells xenografted in NMRI nu/nu mouse assessed as induction of tumor regression at 46 mg/kg, ip administered once daily and measured on day 27 relative to control. It counts as functional. The settings on record: time 27 day.
The target of test [15] is T3, Tyrosine-protein phosphatase non-receptor type 11. Description: Allosteric inhibition of full-length His6-tagged human SHP2 (2 to 527 residues) expressed in Escherichia coli using DiFMUP as substrate in presence of activating peptide (LN(pY)IDLDLV(dPEG8)LST(pY)ASINFQK-amide) by fluorescence method.
Test [16] deals with T4, Tyrosine-protein phosphatase non-receptor type 11 (Homo sapiens) (UniProt Q06124).
T4 sequence (whole entry): T3 sequence (Q06124 whole entry)
Kind of test: Allosteric inhibition of dPEG8 peptide-activated SHP2 (unknown origin) using DiFMUP as substrate at 100 nM preincubated for 30 followed by substrate addition and measured after 30 mins by fluorescence method relative to control.

Test [17] deals with T3, Tyrosine-protein phosphatase non-receptor type 11. Kind of test: Allosteric inhibition of SHP2 (unknown origin) using DiFMUP as substrate preincubated for 60 mins in presence of activating peptide IRS-1 followed by substrate addition and measured after 60 mins by fluorescence method.
For test [18] the target is unchanged. Description: Allosteric inhibition of IRS1_pY1172(dPEG8)pY1222 activated-human full length SHP2 (Met1 to Leu525 residues) expressed in Escherichia coli BL21 Star (DE3) cells using DiFMUP as substrate preincubated for 30 to 60 mins followed by substrate addition and measured after 30 mins by fluorescence method.
The target is the same in test [19]. Kind of test: Allosteric inhibition of dPEG8 peptide-activated SHP2 (unknown origin) using DiFMUP as substrate preincubated for 30 followed by substrate addition and measured after 30 mins by fluorescence method.
Test [20] has as its target T2, Tyrosine-protein phosphatase non-receptor type 6. Kind of test: Inhibition of recombinant His6-fused SHP1 catalytic domain (unknown origin) using p-nitrophenyl phosphate as substrate by spectrophotometric analysis.

In general, IC50 refers to the concentration that gives 50% inhibition. Turning to `CCOC(=O)c1ccc(N2N=C(c3ccc([N+](=O)[O-])cc3)/C(=N/Nc3ccc(S(=O)(=O)O)cc3)C2=O)cc1`, the concentration for half-maximal inhibition (IC50) in test [1] was 2100 nM; in [2], 1800 nM. As for `O=C(Nc1ccc(-c2cc[nH]c2)cc1)C(=O)Nc1cccc(-c2[nH]c3cc(O)c(C(=O)O)cc3c2I)c1`, in test [3], the Activity was 52%. With `COc1cccc(-c2nnc3n(Cc4ccccc4Cl)c(=O)c4ccccc4n23)c1O`, the values for the IC50 in test [4] and in [5] were greater than 100000 nM and 68000 nM, respectively.

With `Cc1nc(N2CCC3(CC2)CO[C@@H](C)[C@H]3N)c(CO)nc1-c1cccc(Cl)c1Cl`, the IC50 in test [6], in test [7] and in test [8] was greater than 10000 nM throughout. For the compound `O=C1/C(=N\Nc2ccc(S(=O)(=O)O)cc2)C(c2ccc([N+](=O)[O-])cc2)=NN1c1ccc(Cl)cc1`, the IC50 worked out at 8930 nM in test [9], 1160 nM in test [10] and 10200 nM in test [11]. On to `CC1(N)CCN(c2nc3sc(-c4cccc(Cl)c4Cl)nn3c2CO)CC1`, for which the half-maximal inhibitory concentration (IC50) in [12] came out at 22.3 nM.

Turning to `Nc1nc(N2CCC3(CCC[C@H]3N)CC2)cnc1-c1cccc(Cl)c1Cl`, the midpoint of inhibition in test [13], the IC50, lay at 70 nM. Regarding `O=C1/C(=N\Nc2ccc(S(=O)(=O)O)cc2)C(c2ccc([N+](=O)[O-])cc2)=NN1c1ccc([N+](=O)[O-])cc1`, the IC50 in test [9] is 3170 nM; in test [10], 70 nM; in test [11], 2080 nM. In addition, in [14], the Activity is given as 42.6%.

Regarding `O=C1/C(=N\Nc2ccc(S(=O)(=O)O)cc2)C(c2ccc([N+](=O)[O-])cc2)=NN1c1ccc(C(F)(F)F)cc1`, the values for the IC50 in [9], in test [10] and in [11] were 10600 nM, 940 nM and 14400 nM, respectively. In the case of `O=C(O)c1ccc(O)c(-c2nnc3n(Cc4ccccc4Cl)c(=O)c4ccccc4n23)c1`, in test [4], the IC50 was greater than 100000 nM. Still for that read-out and setting: for `COc1cccc(-c2nnc3n(Cc4ccc(C(=O)N5CCC[C@H]5C(=O)O)cc4Cl)c(=O)c4ccccc4n23)c1O` the value was greater than 100000 nM.

For `C[C@@H]1OCC2(CCC(c3cnc4nc(Sc5ccnc(N6CCCC6)c5Cl)ccc4n3)CC2)[C@@H]1N` (some centres undefined), the IC50 in [15] came out at 100 nM.

One may read the inhibition as the share of the control response that was lost under treatment. Take `Nc1nc(N2CCC3(CC2)Cc2ncsc2[C@H]3N)cnc1Sc1ccnc(N)c1Cl`: in [16] (filed as negative allosteric modulator), the inhibition came out at 49%. `COc1ccc(N2N=C(c3ccc([N+](=O)[O-])cc3)/C(=N/Nc3ccc(S(=O)(=O)O)cc3)C2=O)cc1`: the 50% inhibitory concentration (IC50) in test [9] was found to be 6800 nM; in test [10], 500 nM; in test [11], 2140 nM. On to `CC1(N)CCN(c2cnc3c(-c4cccc(Cl)c4Cl)n[nH]c3c2)CC1`, for which the half-maximal inhibitory concentration (IC50) in [12] was found to be 17.9 nM. As to `CC1(CN)CCN(c2ncc(Sc3cccc(Cl)c3Cl)[nH]c2=O)CC1`, the half-maximal inhibitory concentration (IC50) in [17] was less than 50 nM. For the compound `O=c1c2ccccc2n2c(-c3ccccc3O)nnc2n1Cc1ccccc1Cl`, the IC50 in test [4] and in test [18] was greater than 100000 nM each time.

`Nc1nc(N2CCC3(CC2)c2ncccc2C[C@H]3N)cnc1Sc1ccnc(N)c1Cl` gave an inhibition in test [16] of 20%. `Nc1nc(N2CCC3(CC2)Cc2ccncc2[C@H]3N)cnc1Sc1ccnc(N)c1Cl`: in [19], the IC50 came out at 7 nM. Consider `NC(=O)[C@H](Cc1ccc(C(F)(F)P(=O)(O)O)cc1)NC(=O)[C@H](CC(=O)O)NC(=O)Cc1ccc(C(F)(F)P(=O)(O)O)cc1`, for which the 50% inhibitory concentration (IC50) in [20] is 11000 nM. For the compound `Nc1nc(N2CCC3(CC2)Cc2ncccc2[C@H]3N)cnc1Sc1ccnc(N)c1Cl`, the inhibition in test [16] came out at 30%. For the compound `Cc1ccc(N2N=C(c3ccc([N+](=O)[O-])cc3)/C(=N/Nc3ccc(S(=O)(=O)O)cc3)C2=O)cc1`, the IC50 in test [9] was found to be 6560 nM; in test [10] it was 410 nM; in test [11], 9830 nM. In test [19], `Nc1nc(N2CCC3(CC2)Cc2cnccc2[C@H]3N)cnc1Sc1ccnc(N)c1Cl` registered an IC50 of 3 nM.
